In paper PMC8443589, “Modelling human liver fibrosis in the context of non-alcoholic steatohepatitis using a microphysiological system” (Communications Biology, 2021):
Values joined by “and” are separate entries in the source; they are usually repeats but may differ in a detail not shown here. Equal values may be shown once.

Assays:
[1] = test system: liver MPS NASH model (PHH, KC and HSC co-cultures); test: Cue study: RNAseq transcriptomic profile, enriched pathways; format: cell-based, human; details: GO term enrichment and cluster analysis, 14 days
Method: Fig. 4 Systems biology interrogation of liver MPS NASH model to determine physiologically relevant cues that promote transcriptional changes to mimic advanced NASH disease state. […]
The MPS LC12 plates consists of 12 individual bioreactors that contain pneumatically driven micro-pumps to recirculate cell culture medium through a collagen-coated scaffold. […] Microtissues were then cultured in either HEP-Lean or HEP-Fat medium, both media’s are proprietary to CN Bio Innovations Ltd. The HEP-Fat medium is a derivative of the HEP-LEAN medium and contains a mixture of saturated and unsaturated FFAs, as well as physiologically relevant quantities of insulin and sugars. […]
Prior to RNA-seq integrity and quantity of RNA were assessed by Fragment Analyzer high sensitivity RNA kit (Agilent Technologies, USA). […] Quality and quantity of libraries were assessed by Fragment Analyzer standard sensitivity NGS kit (Agilent Technologies, USA). […] The sample pools were quantified with a Qubit Fluorometer (ThermoFisher Scientific, USA) using the dsDNA HS kit (ThermoFisher Scientific, USA), further diluted and sequenced to >13 M paired reads/sample on NextSeq500 (Illumina, USA) with PE 75 base pair (bp) read length setting.
The sequencing data were demultiplexed using Illumina bcl2fastq2-v2.16. The quality of the reads was assessed using FastQC (www.bioinformatics.babraham.ac.uk/projects/fastqc). […]

[2] = test system: liver MPS NASH model (PHH, KC and HSC co-cultures, high fat); test: Fibrosis gene expression (Human Fibrosis RT2 Profiler PCR Arrays) in liver MPS NASH model dosed with OCA or ELF; format: cell-based; details: 10 days, individual cultures
Method: Fig. 3 Obeticholic acid and Elafibranor both modulate inflammatory and fibrosis phenotype in liver MPS NASH model and phenotype can additionally be reversed with dietary changes. PHH, KC and HSC co-cultures were cultured in the MPS platform under high fat conditions and dosed with varying concentrations of Obeticholic acid (OCA) and Elafibranor (ELF) QD or vehicle control (control) for 10 days, following an initial 4-day pre-culture phase. a The secreted cytokine profile from liver microtissues was compared by Luminex to determine the effects of each compound on the inflammatory profile of the liver with samples analysed at day 8 and 14 of the culture. Data were normalised by Z-transformation to allow comparison of all analytes and presented as a heatmap. b The expression of fibrosis-associated genes was analysed in total RNA from control, OCA and ELF treated liver microtissues (highest concentration for each compound) using Human Fibrosis RT2 Profiler PCR Arrays. Gene expression changes are expressed as a fold change over control. c Liver microtissues were stained for collagen-type I, α-SMA, nuclei (DAPI - blue), phalloidin (green) and imaged by confocal microscopy. Representative images are shown and scale bars 200 µm. d Staining of microtissue was quantified by measuring total fluorescence intensity throughout individual microtissues, each data point represents an average of all the microtissues imaged within an MPS scaffold (min 8, max 20 microtissues). e PHH, KC and HSC co-cultures were cultured in the MPS platform under high fat or lean conditions for 30 days. Cultures either remained in the same type of media throughout or were switched at day 15 from fat media to lean media (Fat -> Lean). Cell culture medium samples were analysed for the presence of IL-6, f MCP-1, g TIMP-1, which were measured by ELISA. h Microtissues were stained with Oil-Red O to determine fat loading during culture period, total stain was quantified by absorbance at 510 nm. All datapoints shown, either as box-whisker plots highlighting mean and min-max or with error bars highlighting means ± SD. All data from a minimum of three independent cultures; statistical comparisons made to control samples unless other comparison shown.
Total RNA was extracted from liver microtissue-containing scaffolds using TRIzol® Reagent (Ambion, USA) and a chloroform phase separation. RNA was precipitated from aqueous phase samples using 100% isopropanol and RNA pellets were resuspended in dH2O. Samples were analysed by both QPCR and RNAseq. For QPCR, reverse transcription and PCR were performed using RT2 First Strand Kit and Human Fibrosis RT² Profiler™ PCR Arrays (PAHS-120Z) (Qiagen, UK), with samples analysed on a Quantstudio 6 Real-Time PCR System (Applied Biosystems, UK). Ct values from samples were compared and normalised to house-keeping gene expression. The fold-change in each transcript represented on the array plate was determined using RT2 Profiler™ PCR Array Data Analysis (v. 3.5) Web Portal (Qiagen, UK).
Liver microtissues were cultured for 4 days in HEP-FAT medium, before dosing with obeticholic acid or elafibranor. Both compounds were dissolved in DMSO, diluted in cell culture medium (final DMSO concentration ≤1%) and added to microtissues during a full medium change every two days and in addition on the intervening days compounds were spiked into the media to increase drug concentration back to desired concentrations. Cultures were maintained in the presence of the compound, for a total of 10 days in the presence or absence of TGFβ.

With “TGFβ: recombinant TGF beta 1 protein (Abcam), 1 ng/ml cue” the “enriched pathways / gene clusters induced” value [1] was “induced a wide range of clusters associated with collagen formation and matrix reorganisation”.

For `CSc1ccc(C(=O)/C=C/c2cc(C)c(OC(C)(C)C(=O)O)c(C)c2)cc1` [Elafibranor], the “CCL2 relative gene expression compared to GAPDH housekeeping gene” value ([2]; 65.0 uM ELF, listed as ELF) was 3.92e-9 and 2.6e-9 and 6.31e-9, the “CCL3 relative gene expression compared to GAPDH housekeeping gene” value ([2]; 65.0 uM ELF, listed as ELF) was 3.39e-10 and 1.55e-10 and 3.45e-10 and the “CCL11 relative gene expression compared to GAPDH housekeeping gene” value ([2]; 65.0 uM ELF, listed as ELF) was 4.99e-10 and 6.3e-10 and 6.52e-10. For the same molecule, the “CEBPB relative gene expression compared to GAPDH housekeeping gene” value ([2]; 65.0 uM ELF, listed as ELF) was 1.2e-8 and 1.1e-8 and 2.65e-8, the “CXCR4 relative gene expression compared to GAPDH housekeeping gene” value ([2]; 65.0 uM ELF, listed as ELF) was 1.13e-9 and 7.47e-10 and 1.7e-9 and the “DCN relative gene expression compared to GAPDH housekeeping gene” value ([2]; 65.0 uM ELF, listed as ELF) was 2.4e-7 and 1.65e-7 and 3.13e-7. The “HGF relative gene expression compared to GAPDH housekeeping gene” value ([2]; 65.0 uM ELF, listed as ELF) was 6.26e-10 and 2.45e-10 and 6.68e-10, the “MMP1 relative gene expression compared to GAPDH housekeeping gene” value ([2]; 65.0 uM ELF, listed as ELF) was 2.95e-9 and 8.23e-10 and 3.25e-9 and the “MMP9 relative gene expression compared to GAPDH housekeeping gene” value ([2]; 65.0 uM ELF, listed as ELF) was 1.04e-8 and 2.47e-9 and 9.28e-9.

`CC[C@H]1[C@@H](O)[C@@H]2[C@H](CC[C@]3(C)[C@@H]([C@H](C)CCC(=O)O)CC[C@@H]23)[C@@]2(C)CC[C@@H](O)C[C@@H]12` [Obeticholic acid] was tested, and the “CCL2 relative gene expression compared to GAPDH housekeeping gene” value ([2]; 12.5 uM OCA, listed as OCA) was 5.71e-9 and 9.72e-9 and 5e-9, the “CCL3 relative gene expression compared to GAPDH housekeeping gene” value ([2]; 12.5 uM OCA, listed as OCA) was 1.11e-9 and 5.96e-10 and 3.11e-10 and the “CCL11 relative gene expression compared to GAPDH housekeeping gene” value ([2]; 12.5 uM OCA, listed as OCA) was 3.39e-10 and 4.66e-10 and 1.94e-10. For the same molecule, the “CEBPB relative gene expression compared to GAPDH housekeeping gene” value ([2]; 12.5 uM OCA, listed as OCA) was 3e-8 and 1.33e-8 and 1.62e-8, the “CXCR4 relative gene expression compared to GAPDH housekeeping gene” value ([2]; 12.5 uM OCA, listed as OCA) was 2.04e-9 and 8.2e-10 and 6.3e-10 and the “DCN relative gene expression compared to GAPDH housekeeping gene” value ([2]; 12.5 uM OCA, listed as OCA) was 3.44e-7 and 1.39e-7 and 1.03e-7. The “HGF relative gene expression compared to GAPDH housekeeping gene” value ([2]; 12.5 uM OCA, listed as OCA) was 1.68e-9 and 5.3e-10 and 3.89e-10, the “MMP1 relative gene expression compared to GAPDH housekeeping gene” value ([2]; 12.5 uM OCA, listed as OCA) was 9.31e-10 and 1.58e-9 and 2.05e-9 and the “MMP9 relative gene expression compared to GAPDH housekeeping gene” value ([2]; 12.5 uM OCA, listed as OCA) was 1.47e-8 and 5.79e-9 and 3e-9.
